Converted amounts (≈) assume the structure as drawn.
Legend:
[1] = target: Sphingosine 1-phosphate receptor 1 (Homo sapiens, UniProt P21453); test: Agonist activity at human S1P1 receptor expressed in EDG1-bla U2OS cells incubated for 18 hrs prior to GenBlazer substrate addition by beta-arrestin recruitment assay; assay type: cell-based
[2] = target: Sphingosine 1-phosphate receptor 3 (Homo sapiens, UniProt Q99500); test: Agonist activity at human S1P3 receptor expressed in EDG3-bla U2OS cells incubated for 18 hrs prior to GenBlazer substrate addition by beta-arrestin recruitment assay; assay type: cell-based
[3] = target: Sphingosine 1-phosphate receptor 5 (Homo sapiens, UniProt Q9H228); test: Agonist activity at human S1P5 receptor expressed in EDG8-bla U2OS cells incubated for 18 hrs prior to GenBlazer substrate addition by beta-arrestin recruitment assay; assay type: cell-based
[4] = Kinetic solubility of the compound in buffer at pH 7.4 after 16 to 19 hrs by UV absorbance assay; assay type: physicochemical; details: read-out: Kinetic_solubility
[5] = Equilibrium solubility of the compound in citric acid monohydrate/Na2HPO4 dihydrate buffer at pH 6.8 after 24 hrs by RP-HPLC analysis; assay type: physicochemical
Homo sapiens = organism: Homo sapiens; test: Selectivity ratio of EC50 for human S1P5 receptor to EC50 for human S1P1 receptor
[6] = Ratio of drug level in brain to plasma (unknown origin); assay type: ADME, cell-free; details: read-out: BPR
HepG2 = test: Toxicity in human HepG2 cells assessed as phospholipidosis at 0.1 to 200 uM after 48 hrs by Hoechst […] staining-based lipidTOX assay; assay type: cell-based; details: hepg2, 48 h

Chain of Sphingosine 1-phosphate receptor 5 (Q9H228 whole entry): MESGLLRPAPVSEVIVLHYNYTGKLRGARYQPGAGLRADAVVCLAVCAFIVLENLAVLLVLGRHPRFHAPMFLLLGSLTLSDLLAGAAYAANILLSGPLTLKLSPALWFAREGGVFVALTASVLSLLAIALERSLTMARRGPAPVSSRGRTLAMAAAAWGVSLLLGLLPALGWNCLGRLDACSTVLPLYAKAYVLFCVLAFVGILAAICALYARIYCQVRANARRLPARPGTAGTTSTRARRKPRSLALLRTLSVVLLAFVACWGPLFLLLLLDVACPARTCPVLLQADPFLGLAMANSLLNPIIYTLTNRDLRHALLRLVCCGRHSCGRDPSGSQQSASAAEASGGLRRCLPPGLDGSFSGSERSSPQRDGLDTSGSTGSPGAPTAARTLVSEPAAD
Chain of Sphingosine 1-phosphate receptor 1 (P21453 whole entry): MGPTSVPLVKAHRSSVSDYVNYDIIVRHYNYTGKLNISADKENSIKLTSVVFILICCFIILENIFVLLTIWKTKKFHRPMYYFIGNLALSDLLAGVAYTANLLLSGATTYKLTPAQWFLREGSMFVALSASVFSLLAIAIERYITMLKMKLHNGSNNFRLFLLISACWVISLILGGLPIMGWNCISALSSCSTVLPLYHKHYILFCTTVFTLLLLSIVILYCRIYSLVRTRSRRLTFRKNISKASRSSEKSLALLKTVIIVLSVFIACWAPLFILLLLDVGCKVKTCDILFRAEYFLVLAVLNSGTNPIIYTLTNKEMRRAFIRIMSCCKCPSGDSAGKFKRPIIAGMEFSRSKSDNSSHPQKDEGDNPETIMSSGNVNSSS
Chain of Sphingosine 1-phosphate receptor 3 (Q99500 whole entry): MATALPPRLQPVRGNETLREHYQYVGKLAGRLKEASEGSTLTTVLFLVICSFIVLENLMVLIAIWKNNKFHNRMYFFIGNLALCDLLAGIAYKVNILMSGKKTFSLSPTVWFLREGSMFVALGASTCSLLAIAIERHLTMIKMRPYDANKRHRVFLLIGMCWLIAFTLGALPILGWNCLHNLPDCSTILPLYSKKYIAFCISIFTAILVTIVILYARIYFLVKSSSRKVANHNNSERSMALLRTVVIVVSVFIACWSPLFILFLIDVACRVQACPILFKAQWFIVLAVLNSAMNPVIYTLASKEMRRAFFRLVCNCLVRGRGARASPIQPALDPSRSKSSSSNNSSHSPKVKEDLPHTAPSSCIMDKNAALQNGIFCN

Structure (SMILES)	EC50 [1]	solubility kinetic [4]	other results
Cc1cc(-c2nc(-c3ccc(O[C@H]4CCC(=O)NC4)c(C)n3)no2)cc(NC(C)C)n1	42 nM	> 40 µg/mL	EC50 [2]: > 10000 nM; EC50 [3]: 350 nM; solubility thermodynamic at 24 h [5]: 12 µg/mL (≈ 28.4 µM); Ratio EC50 (Homo sapiens): 7
Cc1cc(-c2nnc(-c3cc(F)c(OC[C@H](N)CO)cc3Cl)s2)cc(CC(C)C)n1	0.8 nM	25 µg/mL (≈ 55.4 µM)	–
Cc1cc(-c2nnc(-c3cc(F)c(OC[C@H]4CCC(=O)N4)cc3Cl)s2)cc(NC(C)C)n1	330 nM	0.9 µg/mL (≈ 1.89 µM)	–
Cc1cc(-c2nc(-c3cc(C)c(OC[C@H]4COC(=O)N4)cn3)no2)cc(CC(C)C)n1	63 nM	23 µg/mL (≈ 54.3 µM)	–
CC(C)Oc1ccc(-c2nnc(-c3cc(F)c(OC[C@H](N)CO)cc3Cl)s2)cc1Cl	32 nM	< 0.1 µg/mL	EC50 [2]: > 10000 nM
CC(=O)N1CCOC[C@@H]1COc1cc(Cl)c(-c2nnc(-c3cc(C)nc(NC(C)C)c3)s2)cc1F	310 nM	1 µg/mL (≈ 1.92 µM)	–
Cc1cc(-c2nc(-c3cc(F)c(OC[C@H]4OCC[C@@H]4O)cc3Cl)no2)cc(NC(C)C)n1	6 nM	0.1 µg/mL (≈ 0.216 µM)	–
Cc1cc(-c2nc(-c3cc(F)c(OC[C@H](N)CO)cc3Cl)no2)cc(NC(C)C)n1	4 nM	0.3 µg/mL (≈ 0.688 µM)	–
CC(C)Oc1ncc(-c2nc(-c3cc(F)c(OC[C@H](N)CO)cc3Cl)no2)cc1C#N	0.5 nM	< 0.1 µg/mL	–
Cc1nc(CC(C)C)cc(-c2nc(-c3ccc(O[C@@H]4CCC(=O)NC4)c(F)c3)no2)n1	50 nM	> 40 µg/mL	EC50 [2]: > 10000 nM; EC50 [3]: 360 nM; solubility thermodynamic at 24 h [5]: 27 µg/mL (≈ 63.5 µM); Ratio EC50 (Homo sapiens): 7; Kp [6]: 0.1
Cc1cc(-c2nc(-c3cnc(OC[C@H]4COC(=O)N4)c(C)c3)no2)cc(CC(C)C)n1	1.4 nM	0.9 µg/mL (≈ 2.13 µM)	–
Cc1cc(-c2nc(-c3ccc(OC[C@H]4COC(=O)N4)cn3)no2)cc(NC(C)C)n1	120 nM	0.9 µg/mL (≈ 2.19 µM)	–
Cc1cc(-c2nc(-c3cc(F)c(O[C@@H]4CNC(=O)C4)cc3Cl)no2)cc(NC(C)C)n1	3.5 nM	0.1 µg/mL (≈ 0.224 µM)	–
Cc1cc(-c2nc(-c3cc(F)c(OC[C@H](N)CO)cc3Cl)no2)cc(CC(C)C)n1	20 nM	–	–
Cc1cc(-c2nnc(-c3cc(F)c(O[C@@H]4CNC(=O)C4)cc3Cl)s2)cc(NC(C)C)n1	560 nM	0.6 µg/mL (≈ 1.3 µM)	–
CCCCCCCCCCCCC/C=C/[C@@H](O)[C@@H](N)COP(=O)(O)O	2.8 nM	–	EC50 [2]: 79 nM
CC(C)Oc1ncc(-c2nnc(-c3cc(F)c(OC[C@H](N)CO)cc3Cl)s2)cc1Cl	100 nM	< 0.1 µg/mL	–
Cc1cc(-c2nnc(-c3cc(F)c(O[C@H]4COC[C@H]4O)cc3Cl)s2)cc(NC(C)C)n1 (racemic)	147 nM	0.2 µg/mL (≈ 0.43 µM)	–
CCOc1ncc(-c2nc(-c3cc(F)c(OC[C@H](N)CO)cc3Cl)no2)cc1Cl	62 nM	< 0.1 µg/mL	–
Cc1cc(-c2nnc(-c3cc(F)c(OC[C@H](N)CO)cc3Cl)s2)cc(NC(C)C)n1	18 nM	9 µg/mL (≈ 19.9 µM)	–
Cc1cc(-c2nc(-c3cc(F)c(O[C@H]4COC[C@H]4O)cc3Cl)no2)cc(NC(C)C)n1 (racemic)	0.8 nM	0.1 µg/mL (≈ 0.223 µM)	–
Cc1cc(-c2nc(-c3ccc(OC[C@H]4COC(=O)N4)c(C)n3)no2)cc(NC(C)C)n1	7.9 nM	17 µg/mL (≈ 40.1 µM)	–
Cc1cc(-c2nc(-c3cc(C)c(OC[C@@H]4CCC(=O)N4)c(C)n3)no2)cc(CC(C)C)n1	11 nM	> 40 µg/mL	EC50 [2]: > 10000 nM; EC50 [3]: 340 nM; solubility thermodynamic at 24 h [5]: 21 µg/mL (≈ 48.2 µM); Ratio EC50 (Homo sapiens): 7
Cc1nc(CC(C)C)cc(-c2nc(-c3cc(F)c(O[C@@H]4CCC(=O)N(C)C4)cc3Cl)no2)n1	32 nM	26 µg/mL (≈ 54.9 µM)	EC50 [2]: > 10000 nM; EC50 [3]: 215 nM; solubility thermodynamic at 24 h [5]: 10 µg/mL (≈ 21.1 µM); Ratio EC50 (Homo sapiens): 7; Kp [6]: 0.1
Cc1cc(-c2nnc(-c3cc(F)c(O[C@H]4CCC(=O)NC4)cc3Cl)s2)cc(NC(C)C)n1	160 nM	0.8 µg/mL (≈ 1.68 µM)	–
CC(=O)N1CCOC[C@@H]1COc1cc(Cl)c(-c2noc(-c3cc(C)nc(NC(C)C)c3)n2)cc1F	4.1 nM	0.1 µg/mL (≈ 0.198 µM)	–
Cc1cc(-c2nc(-c3cc(F)c(OC[C@H]4CNC(=O)CO4)cc3Cl)no2)cc(NC(C)C)n1	14 nM	0.1 µg/mL (≈ 0.21 µM)	–

Structure (SMILES)	EC50 [1]	solubility kinetic [4]	other results
Cc1cc(-c2nc(-c3cc(F)c(O[C@H]4CCC(=O)NC4)cc3Cl)no2)cc(NC(C)C)n1	0.2 nM	0.1 µg/mL (≈ 0.217 µM)	–
Cc1cc(-c2nc(-c3ccc(OC[C@H]4COC(=O)N4)cc3)no2)cc(NC(C)C)n1	2.8 nM	0.1 µg/mL (≈ 0.244 µM)	–
Cc1cc(-c2nc(-c3cc(F)c(OC[C@H]4CCC(=O)N4)cc3Cl)no2)cc(NC(C)C)n1	0.8 nM	0.1 µg/mL (≈ 0.217 µM)	–
Cc1cc(-c2nc(-c3cc(F)c(OC[C@H]4COC(=O)N4)cc3Cl)no2)cc(NC(C)C)n1	0.6 nM	0.1 µg/mL (≈ 0.217 µM)	Activity (HepG2): Non-toxic
Cc1cc(-c2nnc(-c3cc(F)c(OC[C@H]4COC(=O)N4)cc3Cl)s2)cc(NC(C)C)n1	86 nM	0.3 µg/mL (≈ 0.628 µM)	–
Cc1cc(-c2nc(-c3cnc(OC[C@H]4COC(=O)N4)c(C)n3)no2)cc(NC(C)C)n1	2.5 nM	2 µg/mL (≈ 4.7 µM)	–
Cc1cc(-c2nc(-c3ccc(OC[C@H]4COC(=O)N4)c(C)n3)no2)cc(CC(C)C)n1	37 nM	> 40 µg/mL	–
Cc1nc(-c2nnc(-c3cc(F)c(OC[C@H](N)CO)cc3Cl)s2)ccc1OC(C)C	105 nM	< 0.1 µg/mL	–
Cc1cc(-c2nnc(-c3cc(F)c(OC[C@H]4CNC(=O)CO4)cc3Cl)s2)cc(NC(C)C)n1	550 nM	0.8 µg/mL (≈ 1.63 µM)	–
Cc1cc(-c2nc(-c3cc(F)c(O[C@@H]4CCC(=O)NC4)cc3Cl)no2)cc(NC(C)C)n1	0.8 nM	0.1 µg/mL (≈ 0.217 µM)	–
Cc1cc(-c2nc(-c3cc(C)c(OC[C@H]4COC(=O)N4)cn3)no2)cc(NC(C)C)n1	18 nM	0.2 µg/mL (≈ 0.471 µM)	–
CCCCCCCCc1ccc(CCC(N)(CO)CO)cc1 [FINGOLIMOD]	–	–	EC50 [2]: > 10000 nM
Cc1cc(-c2nnc(-c3cc(F)c(OC[C@H](N)CO)cc3Cl)s2)cc(OC(C)C)n1	130 nM	< 0.1 µg/mL	–
Cc1cc(-c2nnc(-c3cc(F)c(OC[C@H]4OCC[C@@H]4O)cc3Cl)s2)cc(NC(C)C)n1	250 nM	0.9 µg/mL (≈ 1.88 µM)	–
CC(C)Cc1ccc(-c2nc(-c3ccc([C@@H](C)N[C@H]4C[C@@H](C(=O)O)C4)cc3)no2)cc1	1.9 nM	–	EC50 [2]: > 10000 nM
CC(C)Oc1ncc(-c2nnc(-c3cc(F)c(OC[C@H](N)CO)cc3Cl)s2)cc1C#N	13 nM	< 0.1 µg/mL	–
Cc1cc(-c2nc(-c3ccc(OC[C@H]4COC(=O)N4)c(F)c3)no2)cc(NC(C)C)n1	0.5 nM	0.1 µg/mL (≈ 0.234 µM)	–
Cc1cc(-c2nc(-c3cnc(OC[C@H]4COC(=O)N4)cn3)no2)cc(NC(C)C)n1	150 nM	25 µg/mL (≈ 60.8 µM)	–
CC(C)Oc1ncc(-c2nc(-c3cc(F)c(OC[C@H](N)CO)cc3Cl)no2)cc1Cl	13 nM	< 0.1 µg/mL	–
CC(C)Oc1ccc(-c2nc(-c3cc(F)c(OC[C@H](N)CO)cc3Cl)no2)cc1C#N	0.1 nM	< 0.1 µg/mL	–
Cc1nc(-c2nc(-c3cc(F)c(OC[C@H](N)CO)cc3Cl)no2)ccc1OC(C)C	49 nM	8 µg/mL (≈ 18.3 µM)	–
CCOc1ncc(-c2nnc(-c3cc(F)c(OC[C@H](N)CO)cc3Cl)s2)cc1Cl	594 nM	< 0.1 µg/mL	–
Cc1cc(-c2nc(-c3cnc(OC[C@H]4COC(=O)N4)cn3)no2)cc(CC(C)C)n1	200 nM	27 µg/mL (≈ 65.8 µM)	–
Cc1cc(-c2nc(-c3cc(F)c(OC[C@H](N)CO)cc3Cl)no2)cc(OC(C)C)n1	67 nM	0.2 µg/mL (≈ 0.458 µM)	–
Cc1cc(-c2nc(-c3ccc(OC[C@H]4COC(=O)N4)nc3)no2)cc(NC(C)C)n1	7.3 nM	0.3 µg/mL (≈ 0.731 µM)	–
CC(C)Oc1ccc(-c2nc(-c3cc(F)c(OC[C@H](N)CO)cc3Cl)no2)cc1Cl	4.1 nM	< 0.1 µg/mL	EC50 [2]: > 10000 nM
Cc1cc(-c2nnc(-c3cc(F)c(O[C@@H]4CCC(=O)NC4)cc3Cl)s2)cc(NC(C)C)n1	300 nM	1 µg/mL (≈ 2.1 µM)	–
